Legend:
5-HT1B = 5-HT1B (Homo sapiens, UniProt P28222); assay: binding to 5-HT1B receptor
From the text: (§1) 2R,6R-hydroxynorketamine was investigated for binding to monoamine oxidases A and B, monoamine transporters, as well as a variety of 5HT receptors.

dopamine transporter = dopamine transporter (Homo sapiens, UniProt Q01959); assay: binding to dopamine transporter
From the text: as §1

MAO-B = MAO-B (Homo sapiens, UniProt P27338); assay: binding to monoamine oxidase B
From the text: as §1

plasma binding proteins = assay: fraction unbound in 100% plasma, human; format: in vitro ADME
From the text: While the risk of DDIs due to displacement from plasma binding proteins (PPBs) is relatively low, it should be considered for drugs which display a high proportion PPB (fraction unbound (fu)<1%).
The fu was investigated for 2R,6R-hydroxynorketamine using a 100% plasma from 4 test species.

UGT1A1 = target: T1, UGT1A1 (Homo sapiens, UniProt P22309); assay: UGT inhibition assay, UGT1A1; format: in vitro ADME
T1 sequence (P22309 26-533): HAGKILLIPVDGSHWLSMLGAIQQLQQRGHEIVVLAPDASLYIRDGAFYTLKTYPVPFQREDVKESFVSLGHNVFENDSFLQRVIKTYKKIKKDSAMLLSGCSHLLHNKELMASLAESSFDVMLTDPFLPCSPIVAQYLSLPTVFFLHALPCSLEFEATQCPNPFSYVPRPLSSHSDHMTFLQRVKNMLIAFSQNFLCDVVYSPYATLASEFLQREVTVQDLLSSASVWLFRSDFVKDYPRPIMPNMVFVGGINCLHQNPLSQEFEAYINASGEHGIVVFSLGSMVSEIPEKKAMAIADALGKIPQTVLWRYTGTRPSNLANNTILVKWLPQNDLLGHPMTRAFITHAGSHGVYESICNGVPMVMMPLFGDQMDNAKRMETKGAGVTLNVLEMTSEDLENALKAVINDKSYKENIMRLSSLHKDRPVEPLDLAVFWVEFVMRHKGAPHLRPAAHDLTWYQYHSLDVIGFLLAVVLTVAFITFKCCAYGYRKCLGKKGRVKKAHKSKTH
From the text: 2R,6R-hydroxynorketamine was therefore investigated for its potential to inhibit this isozyme, along with that of the major UGT isozyme, UGT1A1, using a UGT inhibition assay.

[1] = system: α-amino-3-hydroxy-5-methyl-4-isoxazolepropionic acid receptor (AMPAR)-mediated currents; assay: in vitro electrophysiological experiments (fEPSPs)
Description: The free (unbound) concentration of 2R,6R-hydroxynorketamine producing pharmacodynamics activity in the brain is estimated to be approximately 10 μM.

Sequence of dopamine transporter (Q01959 whole entry): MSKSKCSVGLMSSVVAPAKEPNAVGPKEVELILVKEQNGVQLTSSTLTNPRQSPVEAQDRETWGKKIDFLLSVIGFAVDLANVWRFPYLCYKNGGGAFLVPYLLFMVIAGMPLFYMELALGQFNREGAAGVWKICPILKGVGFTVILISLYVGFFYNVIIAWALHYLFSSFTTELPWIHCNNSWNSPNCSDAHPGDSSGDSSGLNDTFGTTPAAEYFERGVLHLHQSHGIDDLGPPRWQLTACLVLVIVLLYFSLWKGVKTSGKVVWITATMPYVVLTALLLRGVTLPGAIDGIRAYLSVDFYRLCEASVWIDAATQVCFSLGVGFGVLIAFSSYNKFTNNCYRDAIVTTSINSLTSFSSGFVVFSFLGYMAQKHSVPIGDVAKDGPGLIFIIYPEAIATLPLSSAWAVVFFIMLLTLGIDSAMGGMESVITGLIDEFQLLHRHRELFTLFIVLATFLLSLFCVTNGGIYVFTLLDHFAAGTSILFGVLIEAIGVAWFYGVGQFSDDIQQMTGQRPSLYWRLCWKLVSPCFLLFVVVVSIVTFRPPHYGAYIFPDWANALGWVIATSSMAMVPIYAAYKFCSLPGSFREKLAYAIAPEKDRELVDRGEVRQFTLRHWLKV
Sequence of 5-HT1B (P28222 whole entry, species assumed): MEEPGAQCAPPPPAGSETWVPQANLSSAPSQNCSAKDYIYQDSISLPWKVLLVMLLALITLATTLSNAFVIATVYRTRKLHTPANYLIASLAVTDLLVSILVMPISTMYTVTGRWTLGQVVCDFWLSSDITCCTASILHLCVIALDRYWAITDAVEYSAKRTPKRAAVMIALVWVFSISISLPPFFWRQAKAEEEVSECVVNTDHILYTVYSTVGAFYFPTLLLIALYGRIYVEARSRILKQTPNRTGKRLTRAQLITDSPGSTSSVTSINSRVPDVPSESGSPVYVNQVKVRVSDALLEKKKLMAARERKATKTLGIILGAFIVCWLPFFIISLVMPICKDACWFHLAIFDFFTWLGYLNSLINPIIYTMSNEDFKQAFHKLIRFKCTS
Sequence of MAO-B (P27338 whole entry, species assumed): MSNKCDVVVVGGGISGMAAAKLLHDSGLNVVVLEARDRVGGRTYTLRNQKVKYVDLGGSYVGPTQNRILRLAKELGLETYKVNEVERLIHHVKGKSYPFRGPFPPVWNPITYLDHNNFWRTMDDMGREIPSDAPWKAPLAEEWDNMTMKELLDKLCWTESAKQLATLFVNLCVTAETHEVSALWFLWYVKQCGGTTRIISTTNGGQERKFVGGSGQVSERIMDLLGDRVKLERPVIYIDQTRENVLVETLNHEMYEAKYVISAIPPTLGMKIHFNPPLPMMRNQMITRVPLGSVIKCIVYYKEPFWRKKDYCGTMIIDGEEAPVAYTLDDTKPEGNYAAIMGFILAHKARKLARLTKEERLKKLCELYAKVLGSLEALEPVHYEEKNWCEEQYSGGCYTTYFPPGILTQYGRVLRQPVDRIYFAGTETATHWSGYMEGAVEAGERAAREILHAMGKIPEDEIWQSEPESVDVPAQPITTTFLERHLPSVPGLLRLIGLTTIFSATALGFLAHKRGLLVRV

With N[C@@]1(c2ccccc2Cl)CCC[C@@H](O)C1=O [2R,6R-hydroxynorketamine] the “% Inhibition of Control Specific Binding” value (5-HT1B) was −2%, the “% of Control Specific Binding” value (5-HT1B) was 102.7% and the “binding to 5HT1B receptor subtype” value (5-HT1B) was “does not bind”. For the same compound, the “% Inhibition of Control Specific Binding” value (dopamine transporter) was 11%, the “% of Control Specific Binding” value (dopamine transporter) was 87.2% and the “activity at dopamine transporters” value (dopamine transporter) was “nor activity at dopamine transporters”. The “% Inhibition of Control Specific Binding” value (MAO-B) was −1%, the “% of Control Specific Binding” value (MAO-B) was 100.4% and the “plasma protein binding (PPB), words” value (plasma binding proteins) was “low PPB”. The “inhibition of UGT1A1” value (UGT1A1) was “does not inhibit”, the “field excitatory postsynaptic potentials (fEPSPs)” value ([1]; 10 μM, in vitro electrophysiology) was “increase” and the “free (unbound) concentration producing pharmacodynamics activity in the brain” value ([1]; estimated) was “approximately 10 μM”. The “substrate of p-gp or Breast Cancer Resistance Protein (BCRP) efflux transporters” value (Caco-2; Caco-2) was “not a substrate” and the “permeability” value (Caco-2; Caco-2 permeability assay) was “high”.
